Reference: patent US20080194609A1, “Chemical Compound and Its Use” (Bayer HeathCare AG, priority 2004, published 2008)
Where two headings read alike, the source gives them in different places.

Tests used:
CETP [1] = molecular target: T1, CETP (Homo sapiens, UniProt P11597); experiment: CETP-SPA test; format: biochemical; design: CETP is obtained in partially purified form from human plasma; from tissue; host or cells: human plasma (d>1.21 g/ml bottom fraction; Phenyl-Sepharose, CM-Sepharose, Mono Q); details: transfer of 3H-cholesterol ester from human HDL to biotinylated LDL, 37° C., 18 h
T1 sequence (P11597 18-493): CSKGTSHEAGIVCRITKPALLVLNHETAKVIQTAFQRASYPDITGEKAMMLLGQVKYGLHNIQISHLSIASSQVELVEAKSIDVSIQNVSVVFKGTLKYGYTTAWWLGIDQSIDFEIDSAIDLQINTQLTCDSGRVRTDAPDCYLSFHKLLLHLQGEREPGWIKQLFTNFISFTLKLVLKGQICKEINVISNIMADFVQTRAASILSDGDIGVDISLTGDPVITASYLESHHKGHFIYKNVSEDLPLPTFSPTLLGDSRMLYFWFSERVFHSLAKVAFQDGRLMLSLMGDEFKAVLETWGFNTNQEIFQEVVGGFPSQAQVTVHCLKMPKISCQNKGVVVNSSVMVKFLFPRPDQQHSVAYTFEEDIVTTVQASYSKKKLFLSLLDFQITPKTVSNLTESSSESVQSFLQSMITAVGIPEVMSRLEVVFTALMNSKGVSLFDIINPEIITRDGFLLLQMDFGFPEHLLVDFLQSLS
Description: (§1) CETP is obtained in partially purified form from human plasma by differential centrifugation and column chromatography and used for the test. To this end, human plasma is adjusted to a density of 1.21 g per ml using NaBr and centrifuged at 4° C. at 50 000 rpm for 18 h. The bottom fraction (d>1.21 g/ml) is applied to a Sephadex® Phenyl-Sepharose 4B (Pharmacia) column, washed with 0.15 M NaCl/0.001 M tris-HCl pH 7.4 and then eluted with distilled water. The CETP-active fractions are pooled, dialyzed against 50 mM sodium acetate pH 4.5 and applied to a CM-Sepharose® column (Pharmacia). The mixture is then eluted using a linear gradient (0-1 M NaCl). The pooled CETP fractions are dialyzed against 10 mM tris/HCl pH 7.4 and then further purified by chromatography on a Mono Q® column (Pharmacia).
50 ml of fresh human EDTA plasma is adjusted to a density of 1.12 using NaBr and centrifuged at 4° C. in a Ty 65 rotor at 50 000 rpm for 18 h. The upper phase is used for the obtainment of cold LDL. […]
For testing of the CETP activity, the transfer of ^3H-cholesterol ester from human HD lipoproteins to biotinylated LD lipoproteins is measured. The reaction is ended by addition of streptavidin-SPA® beads (Amersham) and the transferred radioactivity is determined directly in a liquid scintillation counter. […]

[2] = molecular target: T2, CETP (enriched CETP fraction obtained from human plasma) (Homo sapiens, UniProt P11597); experiment: CETP fluorescence test with enriched CETP; format: biochemical; details: 37° C., 4 hours, CE transfer between liposomes
T2 construct: CETP is obtained in partially purified form from human plasma; from tissue; host or cells: human plasma (d>1.21 g/ml bottom fraction; Phenyl-Sepharose, CM-Sepharose, Mono Q)
T2 sequence (P11597 18-493): T1 sequence (P11597 18-493)
Description: as §1
Measurement of the CETP-catalyzed transfer of a fluorescent cholesterol ester between liposomes [modified according to the procedure of Bisgaier et al., J. Lipid Res. 34, 1625 (1993)]: […]
The change in the fluorescence at 485/535 nm is a measure of the CE transfer; the inhibition of the transfer in comparison to the control batch without substance is determined. […]

CETP in human plasma = molecular target: T3, CETP in human plasma (Homo sapiens, UniProt P11597); experiment: CETP fluorescence test with human plasma; format: biochemical; details: 86% v/v human plasma, 37° C., 24 h
T3 construct: tissue Sigma P9523; host or cells: human plasma (purchased, unfractionated)
T3 sequence (P11597 18-493): T1 sequence (P11597 18-493)
Description: For the production of the donor liposomes, 1 mg of cholesteryl 4,4-difluoro-5,7-dimethyl-4-bora-3a,4a-diaza-s-indacene-3-dodecanoate (cholesteryl BODIPY® FL C1-2, Molecular Probes) is dissolved in 600 μl of dioxane with 5.35 mg of triolein and 6.67 mg of phosphatidylcholine with gentle warming in an ultrasonic bath and this solution is added very slowly with ultrasonication to 63 ml of 50 mM tris/HCl, 150 mM NaCl, 2 mM EDTA buffer pH 7.3 at room temperature. The suspension is then ultrasonicated under an N2 atmosphere for 30 minutes in the Branson ultrasonic bath at about 50 watts, the temperature being kept at about 20° C.
6 μl (12% v/v) of donor liposomes and 1 μl (2% v/v) of a solution of the substance to be investigated in DMSO are added to 42 μl (86% v/v) of human plasma (Sigma P9523), and the mixture is incubated at 37° C. for 24 h.
The change in the fluorescence at 510/520 nm (gap width 2.5 nm) is a measure of the CE transfer; the inhibition of the transfer in comparison to the control batch without substance is determined. […]

CETP [3] = molecular target: T1, CETP; experiment: Ex vivo activity on transgenic hCETP mice (CETP activity in the serum); design: from tissue; host or cells: serum of transgenic hCETP mice (host Mus musculus) after oral dosing; details: mouse, 3 mg/kg oral, cholesteryl ester transport
Description: 10 μl of buffer and 2 μl of serum are added to 80 μl of test mix, and the mixture is incubated at 37° C. for 4 h.
The change in the fluorescence at 485/535 nm is a measure for the CE transfer; the inhibition of the transfer in comparison to the control batch without substance is determined.
To test for CETP-inhibitory activity, the substances are administered orally using a stomach tube to transgenic hCETP mice bred in-house [Dinchuk et al. BBA 1295-301 (1995)]. To this end, male animals are randomly assigned to groups having an equal number of animals, as a rule n=4, one day before the start of the experiment. Before administration of the substance, blood is taken from each mouse by puncture of the retro-orbital venous plexus for the determination of its basal CETP activity in the serum (T1). The test substance is then administered to the animals using the stomach tube. […]
After termination of the clotting, the blood samples are centrifuged and the serum is removed by pipette. For the determination of the CETP activity, the cholesteryl ester transport over 4 h is determined. […]
The differences in the cholesteryl ester transport [pM CE/h (T2)−pM CE/h (T1)] are calculated for each animal and averaged in the groups. […]

| IC50 (CETP [1]) | IC50 [2] | IC50 (CETP in human plasma) | inhibition at 3 mg/kg (CETP [3]; serum taken 16 h after administration, read-out: % inhibition at 3 mg/kg 16 h) | inhibition at 3 mg/kg (CETP [3]; serum taken 24 h after administration, read-out: % inhibition at 3 mg/kg 24 h) | SMILES |
| --- | --- | --- | --- | --- | --- |
| 24 nM | 15 nM | 40 nM |  |  | O[C@H]1CC2(CC2)Cc2nc(C3CCCC3)c([C@@H](F)c3ccc(C(F)(F)F)cc3)c(C3CCCC3)c21 [Example 1] |
| 32 nM | 17 nM | 80 nM | 74% | 66% | O[C@H]1CC2(CC2)Cc2nc(C3CCCC3)c([C@@H](F)c3ccc(C(F)(F)F)cc3)c(C3CCCCC3)c21 [Example 1] |
